Columns and labels:
Type in all cases: in vivo
[1] = system: AMBEL, Ragweed, Common, Ambrosia artemiisifolia, L.; test: Postemergence herbicidal evaluation (Example 147); settings: rating scale 0-9, two to three weeks after treatment
In short: (§1)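 Spray carrier: 80/20 acetone/water, 1.0% SUN-IT II methylated seed oil; rate about 0.016 to 0.032 kg/ha at 40 psi onto two-week seedlings. Assessment: plant stand, vigor, chlorosis and malformation scored 0-9 versus control, two to three weeks after treatment.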

[2] = system: SETVI, Green foxtail, Setaria viridis, (L.)Beau; test: Postemergence herbicidal evaluation (Example 147); settings: rating scale 0-9, two to three weeks after treatment
In short: as §1

[3] = system: ALOMY, Blackgrass, Alopecurus myosuroides; test: Postemergence herbicidal evaluation (Example 147); settings: rating scale 0-9, two to three weeks after treatment
In short: as §1

[4] = system: GLXMA, Soybean, Glycine max, (L.) Merr.; test: Postemergence herbicidal evaluation (Example 147); settings: rating scale 0-9, two to three weeks after treatment
In short: as §1

[5] = system: ECHCG, Barnyardgrass, Echinochloa crusgalli, (L.)Beau; test: Postemergence herbicidal evaluation (Example 147); settings: rating scale 0-9, two to three weeks after treatment
In short: as §1

[6] = system: CHEAL, Lambsquarters, Chenopodium album, L. Common; test: Postemergence herbicidal evaluation (Example 147); settings: rating scale 0-9, two to three weeks after treatment
In short: as §1

[7] = system: ABUTH, Velvetleaf, Abutilon theophrasti, Medic.; test: Postemergence herbicidal evaluation (Example 147); settings: rating scale 0-9, two to three weeks after treatment
In short: as §1

[8] = system: TRZAW, Winter wheat, Tritium Aestivum, L. (Winter); test: Postemergence herbicidal evaluation (Example 147); settings: rating scale 0-9, two to three weeks after treatment
In short: as §1

[9] = system: IPOHE, Morningglory, Ivyleaf, Ipomoea hederacea, (L)Jacq.; test: Postemergence herbicidal evaluation (Example 147); settings: rating scale 0-9, two to three weeks after treatment
In short: as §1

[10] = system: ZEAMX, Field corn, Zea mays L.; test: Postemergence herbicidal evaluation (Example 147); settings: rating scale 0-9, two to three weeks after treatment
In short: as §1

[11] = system: XANST, Cocklebur, Xanthium strumariam; test: Postemergence herbicidal evaluation (Example 147); settings: rating scale 0-9, two to three weeks after treatment
In short: as §1

[12] = system: DIGSA, Crabgrass, (Hairy) L, Digitaria sanguinalis, (L)Scop; test: Postemergence herbicidal evaluation (Example 147); settings: rating scale 0-9, two to three weeks after treatment
In short: as §1

[13] = system: AMBEL, Ragweed, Common, Ambrosia artemiisifolia, L.; test: Preemergence herbicidal evaluation (Example 148); settings: rating scale 0-9, two to four weeks after treatment
In short: (§2)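 Each species was planted separately in cups, its seed mixed into potting soil over roughly an inch of soil. Spraying with compound in aqueous acetone followed planting (~0.125–0.250 kg/ha). Overall appearance, chlorosis and stand were compared with a control after 2–4 weeks.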

[14] = system: SETVI, Green foxtail, Setaria viridis, (L.)Beau; test: Preemergence herbicidal evaluation (Example 148); settings: rating scale 0-9, two to four weeks after treatment
In short: as §2

[15] = system: ALOMY, Blackgrass, Alopecurus myosuroides; test: Preemergence herbicidal evaluation (Example 148); settings: rating scale 0-9, two to four weeks after treatment
In short: as §2

[16] = system: GLXMA, Soybean, Glycine max, (L.) Merr.; test: Preemergence herbicidal evaluation (Example 148); settings: rating scale 0-9, two to four weeks after treatment
In short: as §2

[17] = system: ECHCG, Barnyardgrass, Echinochloa crusgalli, (L.)Beau; test: Preemergence herbicidal evaluation (Example 148); settings: rating scale 0-9, two to four weeks after treatment
In short: as §2

[18] = system: CHEAL, Lambsquarters, Chenopodium album, L. Common; test: Preemergence herbicidal evaluation (Example 148); settings: rating scale 0-9, two to four weeks after treatment
In short: as §2

[19] = system: ABUTH, Velvetleaf, Abutilon theophrasti, Medic.; test: Preemergence herbicidal evaluation (Example 148); settings: rating scale 0-9, two to four weeks after treatment
In short: as §2

[20] = system: TRZAW, Winter wheat, Tritium Aestivum, L. (Winter); test: Preemergence herbicidal evaluation (Example 148); settings: rating scale 0-9, two to four weeks after treatment
In short: as §2

[21] = system: IPOHE, Morningglory, Ivyleaf, Ipomoea hederacea, (L)Jacq.; test: Preemergence herbicidal evaluation (Example 148); settings: rating scale 0-9, two to four weeks after treatment
In short: as §2

[22] = system: ZEAMX, Field corn, Zea mays L.; test: Preemergence herbicidal evaluation (Example 148); settings: rating scale 0-9, two to four weeks after treatment
In short: as §2

[23] = system: XANST, Cocklebur, Xanthium strumariam; test: Preemergence herbicidal evaluation (Example 148); settings: rating scale 0-9, two to four weeks after treatment
In short: as §2

[24] = system: DIGSA, Crabgrass, (Hairy) L, Digitaria sanguinalis, (L)Scop; test: Preemergence herbicidal evaluation (Example 148); settings: rating scale 0-9, two to four weeks after treatment
In short: as §2

Cn1c(C(F)(F)F)cc(=O)n(-c2cc(C(=O)NS(N)(=O)=O)c(Cl)cc2F)c1=O [Example 58]
Postemergence herbicidal rating AMBEL ([1]; rate 0.016 kg/ha): 9.0 | Postemergence herbicidal rating AMBEL ([1]; rate 0.032 kg/ha): 9.0 | Postemergence herbicidal rating SETVI ([2]; rate 0.016 kg/ha): 8.0 | Postemergence herbicidal rating SETVI ([2]; rate 0.032 kg/ha): 8.0 | Postemergence herbicidal rating ALMOY ([3]; rate 0.016 kg/ha): 3.0 | Postemergence herbicidal rating ALMOY ([3]; rate 0.032 kg/ha): 3.0 | Postemergence herbicidal rating GLXMA ([4]; rate 0.016 kg/ha): 8.5 | Postemergence herbicidal rating GLXMA ([4]; rate 0.032 kg/ha): 8.5 | Postemergence herbicidal rating ECHCG ([5]; rate 0.016 kg/ha): 6.0 | Postemergence herbicidal rating ECHCG ([5]; rate 0.032 kg/ha): 7.0 | Postemergence herbicidal rating CHEAL ([6]; rate 0.016 kg/ha): 8.0 | Postemergence herbicidal rating CHEAL ([6]; rate 0.032 kg/ha): 9.0 | Postemergence herbicidal rating ABUTH ([7]; rate 0.016 kg/ha): 9.0 | Postemergence herbicidal rating ABUTH ([7]; rate 0.032 kg/ha): 9.0 | Postemergence herbicidal rating TRZAW ([8]; rate 0.016 kg/ha): 4.5 | Postemergence herbicidal rating TRZAW ([8]; rate 0.032 kg/ha): 5.0 | Postemergence herbicidal rating IPOHE ([9]; rate 0.016 kg/ha): 9.0 | Postemergence herbicidal rating IPOHE ([9]; rate 0.032 kg/ha): 9.0 | Postemergence herbicidal rating ZEAMX ([10]; rate 0.016 kg/ha): 8.0 | Postemergence herbicidal rating ZEAMX ([10]; rate 0.032 kg/ha): 8.0 | Postemergence herbicidal rating XANST ([11]; rate 0.016 kg/ha): 9.0 | Postemergence herbicidal rating XANST ([11]; rate 0.032 kg/ha): 9.0 | Postemergence herbicidal rating DIGSA ([12]; rate 0.016 kg/ha): 5.0 | Postemergence herbicidal rating DIGSA ([12]; rate 0.032 kg/ha): 6.0 | Preemergence herbicidal rating AMBEL ([13]; rate 0.125 kg/ha): 9.0 | Preemergence herbicidal rating AMBEL ([13]; rate 0.25 kg/ha): 9.0 | Preemergence herbicidal rating SETVI ([14]; rate 0.125 kg/ha): 2.0 | Preemergence herbicidal rating SETVI ([14]; rate 0.25 kg/ha): 6.0 | Preemergence herbicidal rating ALMOY ([15]; rate 0.125 kg/ha): 0.0 | Preemergence herbicidal rating ALMOY ([15]; rate 0.25 kg/ha): 0.0 | Preemergence herbicidal rating GLXMA ([16]; rate 0.125 kg/ha): 9.0 | Preemergence herbicidal rating GLXMA ([16]; rate 0.25 kg/ha): 9.0 | Preemergence herbicidal rating ECHCG ([17]; rate 0.125 kg/ha): 4.0 | Preemergence herbicidal rating ECHCG ([17]; rate 0.25 kg/ha): 6.0 | Preemergence herbicidal rating CHEAL ([18]; rate 0.125 kg/ha): 9.0 | Preemergence herbicidal rating CHEAL ([18]; rate 0.25 kg/ha): 9.0 | Preemergence herbicidal rating ABUTH ([19]; rate 0.125 kg/ha): 9.0 | Preemergence herbicidal rating ABUTH ([19]; rate 0.25 kg/ha): 9.0 | Preemergence herbicidal rating TRZAW ([20]; rate 0.125 kg/ha): 0.0 | Preemergence herbicidal rating TRZAW ([20]; rate 0.25 kg/ha): 3.0 | Preemergence herbicidal rating IPOHE ([21]; rate 0.125 kg/ha): 9.0 | Preemergence herbicidal rating IPOHE ([21]; rate 0.25 kg/ha): 9.0 | Preemergence herbicidal rating ZEAMX ([22]; rate 0.125 kg/ha): 0.0 | Preemergence herbicidal rating ZEAMX ([22]; rate 0.25 kg/ha): 1.0 | Preemergence herbicidal rating XANST ([23]; rate 0.125 kg/ha): 5.0 | Preemergence herbicidal rating XANST ([23]; rate 0.25 kg/ha): 8.0 | Preemergence herbicidal rating DIGSA ([24]; rate 0.125 kg/ha): 0.0 | Preemergence herbicidal rating DIGSA ([24]; rate 0.25 kg/ha): 3.0

CCNS(=O)(=O)NC(=O)c1cc(-n2c(=O)cc(C(F)(F)F)n(C)c2=O)c(F)cc1Cl [Example 80]
Postemergence herbicidal rating AMBEL ([1]; rate 0.016 kg/ha): 7.0 | Postemergence herbicidal rating AMBEL ([1]; rate 0.032 kg/ha): 8.0 | Postemergence herbicidal rating SETVI ([2]; rate 0.016 kg/ha): 5.0 | Postemergence herbicidal rating SETVI ([2]; rate 0.032 kg/ha): 6.0 | Postemergence herbicidal rating ALMOY ([3]; rate 0.016 kg/ha): 0.0 | Postemergence herbicidal rating ALMOY ([3]; rate 0.032 kg/ha): 1.0 | Postemergence herbicidal rating GLXMA ([4]; rate 0.016 kg/ha): 8.0 | Postemergence herbicidal rating GLXMA ([4]; rate 0.032 kg/ha): 8.0 | Postemergence herbicidal rating ECHCG ([5]; rate 0.016 kg/ha): 4.0 | Postemergence herbicidal rating ECHCG ([5]; rate 0.032 kg/ha): 6.0 | Postemergence herbicidal rating CHEAL ([6]; rate 0.016 kg/ha): 3.0 | Postemergence herbicidal rating CHEAL ([6]; rate 0.032 kg/ha): 4.0 | Postemergence herbicidal rating ABUTH ([7]; rate 0.016 kg/ha): 7.0 | Postemergence herbicidal rating ABUTH ([7]; rate 0.032 kg/ha): 9.0 | Postemergence herbicidal rating TRZAW ([8]; rate 0.016 kg/ha): 3.0 | Postemergence herbicidal rating TRZAW ([8]; rate 0.032 kg/ha): 4.0 | Postemergence herbicidal rating IPOHE ([9]; rate 0.016 kg/ha): 9.0 | Postemergence herbicidal rating IPOHE ([9]; rate 0.032 kg/ha): 9.0 | Postemergence herbicidal rating ZEAMX ([10]; rate 0.016 kg/ha): 1.5 | Postemergence herbicidal rating ZEAMX ([10]; rate 0.032 kg/ha): 4.0 | Postemergence herbicidal rating XANST ([11]; rate 0.016 kg/ha): 8.0 | Postemergence herbicidal rating XANST ([11]; rate 0.032 kg/ha): 9.0 | Postemergence herbicidal rating DIGSA ([12]; rate 0.016 kg/ha): 3.0 | Postemergence herbicidal rating DIGSA ([12]; rate 0.032 kg/ha): 4.0 | Preemergence herbicidal rating AMBEL ([13]; rate 0.125 kg/ha): 1.0 | Preemergence herbicidal rating AMBEL ([13]; rate 0.25 kg/ha): 3.0 | Preemergence herbicidal rating SETVI ([14]; rate 0.125 kg/ha): 0.0 | Preemergence herbicidal rating SETVI ([14]; rate 0.25 kg/ha): 0.0 | Preemergence herbicidal rating ALMOY ([15]; rate 0.125 kg/ha): 0.0 | Preemergence herbicidal rating ALMOY ([15]; rate 0.25 kg/ha): 0.0 | Preemergence herbicidal rating GLXMA ([16]; rate 0.125 kg/ha): 0.0 | Preemergence herbicidal rating GLXMA ([16]; rate 0.25 kg/ha): 0.0 | Preemergence herbicidal rating ECHCG ([17]; rate 0.125 kg/ha): 0.0 | Preemergence herbicidal rating ECHCG ([17]; rate 0.25 kg/ha): 3.0 | Preemergence herbicidal rating CHEAL ([18]; rate 0.125 kg/ha): 5.0 | Preemergence herbicidal rating CHEAL ([18]; rate 0.25 kg/ha): 8.0 | Preemergence herbicidal rating ABUTH ([19]; rate 0.125 kg/ha): 1.0 | Preemergence herbicidal rating ABUTH ([19]; rate 0.25 kg/ha): 5.0 | Preemergence herbicidal rating TRZAW ([20]; rate 0.125 kg/ha): 0.0 | Preemergence herbicidal rating TRZAW ([20]; rate 0.25 kg/ha): 0.0 | Preemergence herbicidal rating IPOHE ([21]; rate 0.125 kg/ha): 0.0 | Preemergence herbicidal rating IPOHE ([21]; rate 0.25 kg/ha): 0.0 | Preemergence herbicidal rating ZEAMX ([22]; rate 0.125 kg/ha): 0.0 | Preemergence herbicidal rating ZEAMX ([22]; rate 0.25 kg/ha): 0.0 | Preemergence herbicidal rating XANST ([23]; rate 0.125 kg/ha): 0.0 | Preemergence herbicidal rating XANST ([23]; rate 0.25 kg/ha): 1.0 | Preemergence herbicidal rating DIGSA ([24]; rate 0.125 kg/ha): 0.0 | Preemergence herbicidal rating DIGSA ([24]; rate 0.25 kg/ha): 1.0

Reference: patent US6689773B2, “Uracil substituted phenyl sulfamoyl carboxamides” (BASF Aktiengesellschaft, priority 2000, dated 2004)
